Earlier results on one compound are cited in patent publication US7153888B2, “Stabilization of benzoyl peroxide in solution” (Alpharx Inc., priority 2004, dated 2006).

Experiment in series [1]: not given
The source holds these as a separate data set.

On to `O=C(OOC(=O)c1ccccc1)c1ccccc1` [benzoyl peroxide], for which the solubility result (common solvents such as alcohol, PEG and propylene glycol) was “below 20 mg/ml”. The drop of solubility (water-miscible solvent, water content grows from 0 to 25%) is reported as 2–4 orders of magnitude. In series [1] (in PEG 400), the stability by solvent result was “least stable”. In series [1] (in the presence of ethanol and acidic chelating agents, stored at 30° C. or 40° C.), the time until destroyed is recorded as at most 1 month. Also, in series [1] (polyethylene glycol ointment base, 24° C.), the “first-order K value of decomposition” value is 0.028 day⁻¹. For the same compound, in series [1] (pure BP in different solvents, room temperature), the “half-life (50% content decrease)” value was 151 to 6380 h. For the same compound, the “potency of benzoyl peroxide suspension (decrease from 5%)” value in series [1] (suspension in polyethylene glycol ointment base, 50° C., 5 days) is listed as “less than 1%”.
